Where two headings read alike, the source gives them in different places.
Key:
[1] = biological target: Human CB1 receptor from Receptor Biology (hCB1) (Homo sapiens, UniProt P21554); assay: hCB1 receptor binding (3H-CP55,940 displacement)
[2] = biological target: T1, human CB2 receptor from BioSignal (hCB2) (Homo sapiens, UniProt P34972); assay: hCB2 receptor binding (3H-CP55,940 displacement)
T1 construct: purchased BioSignal

[3] = hCB1 membranes, 3H-CP55,940 radioligand, Ki=IC50/(1+[rad]/Kd), read-out: hCB1 Ki

T1 sequence (P34972 whole entry): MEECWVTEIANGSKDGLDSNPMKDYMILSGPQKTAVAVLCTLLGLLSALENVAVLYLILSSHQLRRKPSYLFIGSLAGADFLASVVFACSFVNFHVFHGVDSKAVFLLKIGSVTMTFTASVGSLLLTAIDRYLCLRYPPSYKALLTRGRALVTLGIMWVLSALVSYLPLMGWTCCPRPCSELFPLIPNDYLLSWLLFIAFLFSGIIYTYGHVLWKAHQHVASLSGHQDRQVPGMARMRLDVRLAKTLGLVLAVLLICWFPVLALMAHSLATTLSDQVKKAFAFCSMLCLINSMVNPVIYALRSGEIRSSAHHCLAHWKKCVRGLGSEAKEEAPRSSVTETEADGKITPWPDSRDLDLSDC
Sequence of Human CB1 receptor from Receptor Biology (hCB1) (P21554 whole entry): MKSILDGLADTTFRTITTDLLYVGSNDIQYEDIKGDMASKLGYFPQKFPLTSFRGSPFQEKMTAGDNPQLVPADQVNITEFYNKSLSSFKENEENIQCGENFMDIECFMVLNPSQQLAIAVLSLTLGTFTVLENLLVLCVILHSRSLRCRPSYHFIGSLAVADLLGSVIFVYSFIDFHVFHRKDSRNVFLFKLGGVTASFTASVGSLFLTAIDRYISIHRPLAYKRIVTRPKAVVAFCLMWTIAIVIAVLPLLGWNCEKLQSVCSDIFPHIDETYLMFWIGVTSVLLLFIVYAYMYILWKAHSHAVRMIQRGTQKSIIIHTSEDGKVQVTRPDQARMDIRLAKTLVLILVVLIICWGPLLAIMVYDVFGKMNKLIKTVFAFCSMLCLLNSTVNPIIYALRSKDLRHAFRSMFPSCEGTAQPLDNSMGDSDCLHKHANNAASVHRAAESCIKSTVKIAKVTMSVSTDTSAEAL

## CCOc1ccc(Cc2nc3cc(C(=O)N(CC(F)(F)F)CC(F)(F)F)ccc3n2CC2CC2)cc1 [Compound 2]
[1]; hCB1 Ki (nM)
  Ki: 5080 nM
[2]; read-out: hCB2 Ki
  Ki: 5.6 nM

## CC(C)Oc1ccc(Cc2nc3cc(C(=O)N(CC(F)(F)F)CC(F)(F)F)ccc3n2CC2CCCCC2)nc1 [Compound 32]
[1]; [3]
  Ki: 142 nM
[2]; hCB2 Ki (nM)
  Ki: 2.7 nM

## CCOc1ccc(Cc2nc3cc(C(=O)N(CC(F)(F)F)CC(F)(F)F)ccc3n2C[C@H]2CCCO2)cc1 [Compound 14]
[1]; hCB1 Ki (nM)
  Ki: 5750 nM
[2]; hCB2 Ki (nM)
  Ki: 14.8 nM

## CCOc1ccc(Cc2nc3cc(C(=O)N(CC(F)(F)F)CC(F)(F)F)ccc3n2CC2CCCCC2)nc1 [Compound 30]
[1]; hCB1 Ki (nM)
  Ki: 455 nM
[2]; hCB2 Ki (nM)
  Ki: 3.1 nM

## CCOc1ccc(Cc2nc3cc(C(=O)N(CC(F)(F)F)CC(F)(F)F)ccc3n2Cc2ccsc2)nc1 [Compound 36]
[1]; [3]
  Ki: 5750 nM
[2]; hCB2 Ki (nM)
  Ki: 14 nM

## CCOc1ccc(Cc2nc3cc(C(=O)N(CC(F)(F)F)CC(F)(F)F)ccc3n2CC2CCOCC2)nc1 [Compound 20]
[1]; hCB1 Ki (nM)
  Ki: 2730 nM
[2]; hCB2 Ki (nM)
  Ki: 11.2 nM

## CCOc1ccc(Cc2nc3cc(C(=O)N(CC(F)(F)F)CC(F)(F)F)ccc3n2C[C@@H]2CCCO2)cc1 [Compound 15]
[1]; hCB1 Ki (nM)
  Ki: 5750 nM
[2]; hCB2 Ki (nM)
  Ki: 9.6 nM

## CCOc1ccc(Cc2nc3cc(C(=O)N(CC(F)(F)F)CC(F)(F)F)ccc3n2CC2CCOCC2)cc1 [Compound 13]
[1]; hCB1 Ki (nM)
  Ki: 565 nM
[2]; hCB2 Ki (nM)
  Ki: 5.4 nM

## CCOc1ccc(Cc2nc3cc(C(=O)N(CC(F)(F)F)CC(F)(F)F)ccc3n2CC2CCCCC2)cc1 [Compound 3]
[1]; hCB1 Ki (nM)
  Ki: 84.8 nM
[2]; hCB2 Ki (nM)
  Ki: 0.8 nM

## CCOc1ccc(Cc2nc3cc(C(=O)N(CC(F)(F)F)CC(F)(F)F)ccc3n2CC2CCC2)cc1 [Compound 25]
[1]; hCB1 Ki (nM)
  Ki: 1560 nM
[2]; hCB2 Ki (nM)
  Ki: 2 nM

## CCOc1ccc(Cc2nc3cc(C(=O)N(CC(F)(F)F)CC(F)(F)F)ccc3n2CC2CCC2)nc1 [Compound 26]
[1]; hCB1 Ki (nM)
  Ki: 5530 nM
[2]; hCB2 Ki (nM)
  Ki: 6.6 nM

## CCOc1ccc(C(C)c2nc3cc(C(=O)N(CC(F)(F)F)CC(F)(F)F)ccc3n2Cc2ccncc2)cc1 (centres unmarked) [Compound 9]
[1]; [3]
  Ki: 5570 nM
[2]; hCB2 membranes, 3H-CP55,940 radioligand, Ki=IC50/(1+[rad]/Kd), read-out: hCB2 Ki
  Ki: 165 nM

## CCOc1ccc(Cc2nc3cc(C(=O)N(CC(F)(F)F)CC(F)(F)F)ccc3n2CC2CCCCO2)cc1 (centres unmarked) [Compound 16]
[1]; [3]
  Ki: 1410 nM
[2]; hCB2 Ki (nM)
  Ki: 3.3 nM

## CCOc1ccc(Cc2nc3cc(C(=O)N(CC(F)(F)F)CC(F)(F)F)ccc3n2CC2CCCC2)nc1 [Compound 27]
[1]; hCB1 Ki (nM)
  Ki: 1360 nM
[2]; hCB2 Ki (nM)
  Ki: 3.2 nM

## CCOc1ccc(Cc2nc3cc(C(=O)N(CC(F)(F)F)CC(F)(F)F)ccc3n2Cc2ccco2)cc1 [Compound 7]
[1]; [3]
  Ki: 5530 nM

## CCOc1ccc(Cc2nc3cc(C(=O)N(CC(F)(F)F)CC(F)(F)F)ccc3n2Cc2ccoc2)nc1 [Compound 29]
[1]; [3]
  Ki: 5810 nM
[2]; hCB2 Ki (nM)
  Ki: 68.7 nM

## CCOc1ccc(Cc2nc3cc(C(=O)N(CC(F)(F)F)CC(F)(F)F)ccc3n2CCC(C)C)cc1 [Compound 1]
[1]; [3]
  Ki: 2800 nM
[2]; hCB2 Ki (nM)
  Ki: 3.1 nM

## CCOc1ccc(Cc2nc3cc(C(=O)N(CC(F)(F)F)CC(F)(F)F)ccc3n2CCC(C)C)nc1 [Compound 21]
[1]; hCB1 Ki (nM)
  Ki: 5430 nM
[2]; hCB2 Ki (nM)
  Ki: 15.4 nM

## CCOc1ccc(Cc2nc3cc(C(=O)N(CC(F)(F)F)CC(F)(F)F)ccc3n2Cc2ccco2)cc1 [Compound 4]
[1]; [3]
  Ki: 4690 nM

## CCOc1ccc(Cc2nc3cc(C(=O)N(CC(F)(F)F)CC(F)(F)F)ccc3n2Cc2ccncc2)cc1 [Compound 8]
[1]; [3]
  Ki: 5350 nM
[2]; hCB2 Ki (nM)
  Ki: 16.7 nM
